From ChEMBL document CHEMBL5136988, “Chlororesistoflavins A and B, Chlorinated Benzopyrene Antibiotics Produced by the Marine-Derived Actinomycete Streptomyces sp. Strain EG32” (2022)
In brackets after ≈: the same amount, converted by molar mass.

Assays:
[1] = tested on: Staphylococcus aureus; experiment: Antibacterial activity against methicillin-resistant Staphylococcus aureus TCH1516 assessed as growth inhibition incubated for 20 hrs by CLSI based broth microdilution method; type: functional
[2] = tested on: Escherichia coli; experiment: Antibacterial activity against Escherichia coli LptD4213 assessed as growth inhibition incubated for 20 hrs by CLSI based broth microdilution method; type: functional

Cc1cc(O)c2c3c1C(=O)C=C1C(C)(C)C(=O)c4c(O)cc(O)c(c4[C@@]13O)C2=O
MIC [1]: 0.25 µg/mL (≈ 0.637 µM) | MIC [2]: 64 µg/mL (≈ 163 µM)

Cc1cc(O)c2c3c1C(=O)C=C1C(C)(C)C(=O)c4c(O)c(Cl)c(O)c(c4[C@@]13O)C2=O
MIC [1]: 2 µg/mL (≈ 4.69 µM) | MIC [2]: 128 µg/mL (≈ 300 µM)

Cc1cc(O)c2c3c1C(=O)C(Cl)=C1C(C)(C)C(=O)c4c(O)cc(O)c(c4[C@@]13O)C2=O
MIC [1]: 0.25 µg/mL (≈ 0.586 µM) | MIC [2]: 32 µg/mL (≈ 75 µM)

Cc1cc(O)c2c3c4c(cc(O)c13)C(C)(C)C(=O)c1c(O)cc(O)c(c1-4)C2=O [HELIOMYCIN]
MIC [1]: 0.125 µg/mL (≈ 0.332 µM) | MIC [2]: 32 µg/mL (≈ 85 µM)
